Data taken from ChEMBL document CHEMBL5344452, “TYK2 Inhibitors for Treating Autoimmune and Inflammatory Diseases” (ACS Med Chem Lett, 2024).

The molecules below were run against Non-receptor tyrosine-protein kinase TYK2 (Homo sapiens, UniProt P29597) (assay: Inhibition of human TYK2 JH2 domain (575 to 876 residues) incubated for 60 mins by TR-FRET assay).
Non-receptor tyrosine-protein kinase TYK2, sequence (P29597 whole entry, the tested form may be a part): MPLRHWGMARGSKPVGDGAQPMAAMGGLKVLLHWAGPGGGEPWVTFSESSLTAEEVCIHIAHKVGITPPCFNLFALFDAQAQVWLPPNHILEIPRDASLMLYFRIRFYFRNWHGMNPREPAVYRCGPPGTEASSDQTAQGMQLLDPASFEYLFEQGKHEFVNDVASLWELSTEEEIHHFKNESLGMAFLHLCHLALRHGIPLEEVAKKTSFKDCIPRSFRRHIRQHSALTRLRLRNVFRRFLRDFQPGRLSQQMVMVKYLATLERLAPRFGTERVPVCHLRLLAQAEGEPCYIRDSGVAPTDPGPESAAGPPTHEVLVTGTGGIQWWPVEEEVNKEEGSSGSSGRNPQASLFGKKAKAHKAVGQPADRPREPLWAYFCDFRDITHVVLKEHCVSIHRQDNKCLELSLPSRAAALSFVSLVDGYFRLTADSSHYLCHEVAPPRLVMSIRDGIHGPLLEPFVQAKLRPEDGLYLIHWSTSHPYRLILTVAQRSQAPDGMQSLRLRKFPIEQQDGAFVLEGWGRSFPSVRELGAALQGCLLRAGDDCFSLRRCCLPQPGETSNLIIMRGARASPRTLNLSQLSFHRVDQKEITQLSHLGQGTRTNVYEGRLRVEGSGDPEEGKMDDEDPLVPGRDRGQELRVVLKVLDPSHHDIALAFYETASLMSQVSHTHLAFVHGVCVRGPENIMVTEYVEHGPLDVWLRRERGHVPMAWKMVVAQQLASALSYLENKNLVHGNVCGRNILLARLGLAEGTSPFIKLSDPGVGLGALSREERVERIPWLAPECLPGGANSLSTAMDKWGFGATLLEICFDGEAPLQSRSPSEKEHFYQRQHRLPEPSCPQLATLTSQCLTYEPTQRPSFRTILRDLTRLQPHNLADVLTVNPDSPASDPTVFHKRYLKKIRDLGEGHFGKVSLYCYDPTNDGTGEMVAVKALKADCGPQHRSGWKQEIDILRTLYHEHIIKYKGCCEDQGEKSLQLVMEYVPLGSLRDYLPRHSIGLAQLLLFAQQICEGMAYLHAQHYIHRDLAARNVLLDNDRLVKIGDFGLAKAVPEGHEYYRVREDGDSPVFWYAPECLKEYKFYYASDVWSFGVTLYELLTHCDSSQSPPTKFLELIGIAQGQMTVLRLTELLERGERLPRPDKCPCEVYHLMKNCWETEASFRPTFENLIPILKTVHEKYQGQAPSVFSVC

IC50, ≤ 10 nM:
CC(=O)Nc1cc2c(cn1)c(-c1ccn(C)n1)nn2-c1ccnc(C(C)(F)F)n1
CC(=O)Nc1cc2c(cn1)c(C)nn2-c1cccc(C2CCOC2)n1 (stereo unspecified)
COC1CC(Oc2cc(C3CCOC3)nc(-n3nc(C4CC4)c4cnc(NC(C)=O)cc43)c2)C1 (stereo unspecified)
CC(=O)Nc1cc2c(cn1)c(C)nn2-c1nc(C2CCOC2)c(C)s1 (stereo unspecified)
CC(=O)Nc1cc2c(cn1)c(N1CC3(COC3)C1)nn2-c1nccc(C(C)(F)F)n1
CC(=O)Nc1cc2c(cn1)c(-c1ccc(C)nc1)nn2-c1ccnc(C(C)(F)F)n1
